From PubChem BioAssay (NCI) come the findings set out here.

Test systems include A549 NSCLC; HOP-62 NSCLC; HT29 colon; IGROV1 ovarian; LOX IMVI melanoma; MCF7 breast; NCI-H23 lung; NCI-H522 lung; SF-539 CNS; SW-620 colon.
Common to all, as to assay: inhibition of tumour cell growth, NCI panel, 48 h

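Exposure lasted 48 hours, with cells grown in 96-well plates and compounds tested at five concentrations. Here, GI50 denotes the concentration required for 50% inhibition of growth. The concentration for full growth arrest is given as TGI.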 Where only a bound is given, the exact number is not on record here.

As to `CSc1c(C#N)c(N)nc2c(N=Nc3ccc(Br)cc3)c(N)nn12`, the TGI in the assay on A549 NSCLC turned out to be 25.1 µM; in the assay on HOP-62 NSCLC it was 32.3 µM; in the assay with HT29 colon, 29 µM; in the assay with IGROV1 ovarian, 8.82 µM; in the assay with LOX IMVI melanoma, 3.58 µM; in the assay on MCF7 breast it was 8.63 µM. For the same molecule, the TGI with NCI-H23 lung was determined as 14.4 µM; in the assay with NCI-H522 lung, 12 µM; in the assay with SF-539 CNS, 23.6 µM; in the assay with SW-620 colon, 12.7 µM.
As for `C=CCc1cc(-c2cc(CC=C)c(O)c(CN(CC)CC)c2)cc(CN(CC)CC)c1O`, the TGI in the assay with A549 NSCLC is more than 100 µM; in the assay with HOP-62 NSCLC, 76.8 µM; in the assay with HT29 colon it was 40.9 µM; with IGROV1 ovarian, more than 100 µM; with LOX IMVI melanoma it was 31.7 µM; with MCF7 breast, more than 100 µM. The TGI in the assay with NCI-H23 lung is more than 100 µM; with NCI-H522 lung it was 70.8 µM; with SF-539 CNS, 54.3 µM; with SW-620 colon, 76.2 µM.
For `O=c1oc2ccc([N+](=O)[O-])cc2c(Nc2ccc3c(c2)Sc2ccccc2O3)c1[N+](=O)[O-]`, the TGI in the assay on A549 NSCLC was found to be 73.9 µM; with HOP-62 NSCLC, 44.7 µM; in the assay with HT29 colon it was 74.3 µM; in the assay on IGROV1 ovarian, 54.9 µM; in the assay on LOX IMVI melanoma, 36.2 µM; in the assay with MCF7 breast, 56.7 µM. For the same molecule, the TGI came to 39.1 µM in the assay on NCI-H23 lung, 33.8 µM in the assay on NCI-H522 lung, 37.7 µM in the assay with SF-539 CNS and 80.6 µM in the assay on SW-620 colon.
Take `CCOC(=O)c1sc2nc(SC)nc3c2c1NCN3c1ccc(F)c(F)c1`: the TGI with A549 NSCLC was 25.3 µM; in the assay with HOP-62 NSCLC, 34.1 µM; with HT29 colon, more than 100 µM; in the assay with IGROV1 ovarian it was more than 100 µM; in the assay on LOX IMVI melanoma it was more than 60.1 µM; in the assay on MCF7 breast, more than 100 µM. For the same molecule, the TGI is 75.3 µM with NCI-H23 lung, more than 100 µM with NCI-H522 lung, 11.7 µM in the assay with SF-539 CNS and more than 100 µM with SW-620 colon.
As for `C=CC(OC(C)=O)c1ccc(OC(=O)C(C)C)c(OC)c1` (stereo not given), the TGI stood at 38.7 µM in the assay on A549 NSCLC; 28.4 µM with HOP-62 NSCLC; 6.09 µM in the assay on HT29 colon; 28.7 µM in the assay with IGROV1 ovarian; 5.18 µM in the assay with LOX IMVI melanoma; 5.54 µM with MCF7 breast. For the same molecule, the TGI in the assay on NCI-H23 lung amounted to 47.7 µM; with NCI-H522 lung it was 3.01 µM; with SF-539 CNS, 22.6 µM; in the assay with SW-620 colon, 7.69 µM.
Regarding `O=C1Nc2ccccc2Cn2c1cc1oc(-c3ccccc3)cc12`, the TGI is more than 100 µM in the assay on A549 NSCLC; 44.8 µM in the assay with HOP-62 NSCLC; more than 100 µM in the assay with HT29 colon; more than 100 µM in the assay with IGROV1 ovarian; more than 100 µM in the assay on LOX IMVI melanoma; more than 100 µM in the assay with MCF7 breast. Further, the TGI is more than 100 µM in the assay on NCI-H23 lung, more than 100 µM in the assay on NCI-H522 lung, 74.3 µM with SF-539 CNS and more than 100 µM in the assay on SW-620 colon.
Regarding `Nc1ccccc1.[C-]#[O+].[C-]#[O+].[C-]#[O+].[C-]#[O+].[C-]#[O+].[Cr]`, the GI50 in the assay on A549 NSCLC was 5.18 µM; with HOP-62 NSCLC it was 4.6 µM; in the assay with HT29 colon, more than 10 µM; in the assay on IGROV1 ovarian, 5.53 µM; in the assay with LOX IMVI melanoma it was 3.15 µM; with MCF7 breast it was 2.43 µM. In addition, the GI50 in the assay on NCI-H23 lung was 3.67 µM; with NCI-H522 lung, 2.94 µM; in the assay with SF-539 CNS, 3.28 µM; in the assay with SW-620 colon, more than 10 µM. Further, the TGI with A549 NSCLC is more than 10 µM; in the assay with HOP-62 NSCLC it was more than 10 µM; in the assay with HT29 colon, more than 10 µM; with IGROV1 ovarian it was more than 10 µM; in the assay with LOX IMVI melanoma, 8.56 µM; with MCF7 breast it was more than 10 µM. Also, the TGI with NCI-H23 lung, in the assay on NCI-H522 lung, in the assay on SF-539 CNS and in the assay with SW-620 colon was more than 10 µM throughout.
`COC(=O)/C=C\C(C#N)(C#N)N=Cc1ccccc1`: the TGI came to 34.3 µM with A549 NSCLC; 34 µM with HOP-62 NSCLC; 19.4 µM in the assay with HT29 colon; 25.9 µM with IGROV1 ovarian; 5.72 µM in the assay on LOX IMVI melanoma; 5.73 µM in the assay with MCF7 breast. The TGI stood at 25.3 µM in the assay with NCI-H23 lung, 1.67 µM in the assay with NCI-H522 lung, 9.71 µM with SF-539 CNS and 5.54 µM in the assay with SW-620 colon.
Regarding `COc1cc(O)c2c(=O)c3c(C)cccc3n(C)c2c1`, the TGI with A549 NSCLC, in the assay with HOP-62 NSCLC, with HT29 colon, in the assay on IGROV1 ovarian, in the assay on LOX IMVI melanoma and in the assay on MCF7 breast was more than 10 µM in each case. In addition, the TGI in the assay with NCI-H23 lung, with NCI-H522 lung, with SF-539 CNS and in the assay with SW-620 colon was more than 10 µM throughout.
As for `COc1cc2oc(=O)cc(C)c2cc1O`, the TGI in the assay on A549 NSCLC, in the assay with HOP-62 NSCLC, in the assay on HT29 colon, in the assay with IGROV1 ovarian, in the assay with LOX IMVI melanoma and with MCF7 breast was more than 100 µM each time. In addition, the TGI in the assay with NCI-H23 lung, with NCI-H522 lung, in the assay on SF-539 CNS and in the assay on SW-620 colon was more than 100 µM throughout.
As for `COC(=O)CCc1ccc2c(c1)C(=O)CC2`, the TGI in the assay with A549 NSCLC, in the assay on HOP-62 NSCLC, in the assay on HT29 colon, in the assay on IGROV1 ovarian, with LOX IMVI melanoma and in the assay with MCF7 breast was more than 100 µM in each case. Besides, the TGI in the assay on NCI-H23 lung, in the assay on NCI-H522 lung, in the assay on SF-539 CNS and with SW-620 colon was more than 100 µM each time.
For `COC(OC)C1OCC(n2cc(F)c(=O)[nH]c2=O)C1O` (stereo not given), the TGI with A549 NSCLC, with HOP-62 NSCLC, in the assay on HT29 colon, in the assay on IGROV1 ovarian, in the assay on LOX IMVI melanoma and in the assay with MCF7 breast was more than 100 µM each time. Also, the TGI with NCI-H23 lung, in the assay with NCI-H522 lung, in the assay with SF-539 CNS and in the assay on SW-620 colon was more than 100 µM throughout.
Regarding `CSc1cc(-c2ccccn2)nc(-c2ccccn2)c1`, the TGI was determined as 3.58 µM in the assay with A549 NSCLC; 4.49 µM in the assay with HOP-62 NSCLC; 13 µM in the assay with HT29 colon; 8.99 µM in the assay with IGROV1 ovarian; 1.52 µM in the assay on LOX IMVI melanoma; 10.1 µM in the assay with MCF7 breast. The TGI with NCI-H23 lung is 7.25 µM; with NCI-H522 lung, 9.74 µM; with SF-539 CNS, 6.06 µM; in the assay on SW-620 colon it was 16.6 µM.
Take `CCCCCc1nnc(NS(=O)(=O)c2ccc(NC(=O)OCC(C)C)cc2)s1`: the TGI is more than 100 µM in the assay with A549 NSCLC; more than 100 µM with HOP-62 NSCLC; 46.1 µM with HT29 colon; 97.7 µM in the assay with IGROV1 ovarian; more than 100 µM with LOX IMVI melanoma; more than 100 µM in the assay on MCF7 breast. Besides, the TGI is more than 100 µM in the assay with NCI-H23 lung, 79 µM in the assay with NCI-H522 lung, 64.2 µM with SF-539 CNS and more than 100 µM in the assay with SW-620 colon.
As for `C(/Cc1ccc2c(c1)OCO2)=N\NC1=NCCN1`, the TGI in the assay with A549 NSCLC, with HOP-62 NSCLC, in the assay on HT29 colon, in the assay with IGROV1 ovarian, in the assay on LOX IMVI melanoma and with MCF7 breast was more than 100 µM throughout. The TGI in the assay with NCI-H23 lung, in the assay with NCI-H522 lung, with SF-539 CNS and in the assay with SW-620 colon was more than 100 µM each time.
For `CCOP(=O)(OCC)C(c1ccccc1)N(C(=O)NC(F)(F)F)c1cccc(F)c1` (stereo not given), the TGI with A549 NSCLC, in the assay on HOP-62 NSCLC, in the assay with HT29 colon, in the assay with IGROV1 ovarian, with LOX IMVI melanoma and in the assay with MCF7 breast was more than 100 µM throughout. The TGI in the assay with NCI-H23 lung, in the assay on NCI-H522 lung, with SF-539 CNS and in the assay with SW-620 colon was more than 100 µM in each case.
As to `COC(=O)[C@H]1NC(=O)CCSSC1(C)C`, the TGI in the assay with A549 NSCLC, in the assay on HOP-62 NSCLC, in the assay on HT29 colon, with IGROV1 ovarian, in the assay on LOX IMVI melanoma and in the assay with MCF7 breast was more than 100 µM throughout. In addition, the TGI in the assay with NCI-H23 lung, in the assay with NCI-H522 lung, in the assay with SF-539 CNS and in the assay on SW-620 colon was more than 100 µM each time.
Consider `c1ccc(CN[C@]23C4C5CC6C7C5C2C7[C@@](NCc2ccccc2)(C64)N3Cc2ccccc2)cc1` (stereo not given in full), for which the TGI in the assay with A549 NSCLC, with HOP-62 NSCLC, in the assay on HT29 colon, in the assay on IGROV1 ovarian, in the assay on LOX IMVI melanoma and in the assay with MCF7 breast was more than 100 µM throughout. The TGI in the assay on NCI-H23 lung, in the assay on NCI-H522 lung, with SF-539 CNS and with SW-620 colon was more than 100 µM throughout.
`O=c1sc2c(s1)-c1sc(=O)sc1SS2`: the TGI is more than 100 µM with A549 NSCLC; more than 100 µM in the assay on HOP-62 NSCLC; more than 56.9 µM in the assay with HT29 colon; more than 100 µM with IGROV1 ovarian; more than 100 µM with LOX IMVI melanoma; more than 100 µM in the assay with MCF7 breast. Also, the TGI in the assay on NCI-H23 lung was more than 60.5 µM; in the assay with NCI-H522 lung, more than 100 µM; with SF-539 CNS, 99.1 µM; in the assay on SW-620 colon, more than 100 µM.
Consider `COC(=O)C1=C(OC(=O)/C=C/c2ccccc2)C(C(=O)OC)[C@@]2(O)[C@@H](C(=O)OC)[C@H](C)C[C@@H]1[C@@H]2C(=O)OC` (stereo not given in full), for which the TGI in the assay with A549 NSCLC is 58.4 µM; in the assay on HOP-62 NSCLC, 48.2 µM; with HT29 colon, more than 100 µM; in the assay on IGROV1 ovarian, 63.3 µM; in the assay with LOX IMVI melanoma, 93.2 µM; in the assay on MCF7 breast, 91.4 µM. Further, the TGI with NCI-H23 lung is 48.8 µM; in the assay on NCI-H522 lung it was 21 µM; in the assay with SF-539 CNS, 52.6 µM; in the assay with SW-620 colon, more than 100 µM.
Take `Cc1ccc(C(=O)N(Cc2ccccc2)Cc2ccccc2)cc1N=NN(C)C`: the TGI was more than 100 µM in the assay with A549 NSCLC; 90 µM with HOP-62 NSCLC; 21.3 µM in the assay on HT29 colon; more than 100 µM in the assay on IGROV1 ovarian; 15.6 µM with LOX IMVI melanoma; 65.9 µM in the assay on MCF7 breast. Further, the TGI in the assay with NCI-H23 lung is 58.7 µM; in the assay with NCI-H522 lung, 38.7 µM; in the assay with SF-539 CNS it was 44.9 µM; in the assay with SW-620 colon, more than 100 µM.
Consider `C=C1c2nc3ccccc3n2C=C(c2ccc(C)cc2)N1c1ccc(C)cc1`, for which the TGI in the assay on A549 NSCLC, in the assay with HOP-62 NSCLC, in the assay with HT29 colon, in the assay on IGROV1 ovarian, in the assay on LOX IMVI melanoma and with MCF7 breast was more than 100 µM throughout. The TGI with NCI-H23 lung is more than 100 µM; in the assay on NCI-H522 lung, 56.7 µM; with SF-539 CNS, more than 100 µM; in the assay with SW-620 colon, more than 100 µM.
